By TGI is commonly meant the concentration at which net growth stops. Higher therefore signals less potent growth arrest. For orientation: GI50 means the concentration that inhibits growth by half.

Test systems include M14 melanoma; RXF 393 renal; SR leukemia; MOLT-4 leukemia; CAKI-1 renal; HCT-15 colon; SNB-19 CNS; SF-268 CNS; COLO 205 colon; LOX IMVI melanoma.
What all share (assay): DTP human tumour cell line panel, 48 h

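Assay format: 96-well plates, 48-hour exposure. GI50 = concentration required for 50% inhibition of growth. At the TGI there is no net growth.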 Where only a bound is given, the exact number is not on record here.

On to `CC(O[Si](c1ccccc1)(c1ccccc1)C(C)(C)C)[C@H](NC(=O)OC(C)(C)C)C(=O)O` (stereo not given in full), for which the total growth inhibition concentration (TGI) is over 100 µM in the test on M14 melanoma; over 100 µM in the test on RXF 393 renal; 90.2 µM in the test with SR leukemia; 46.1 µM in the test with MOLT-4 leukemia; over 100 µM with CAKI-1 renal; 79.7 µM with HCT-15 colon. Also, the total growth inhibition concentration (TGI) is over 100 µM in the test with SNB-19 CNS, over 100 µM with SF-268 CNS and 46.1 µM in the test on COLO 205 colon.
`Cc1ccc(/C=C(\C#N)c2ccccc2)cc1`: the TGI with M14 melanoma, with LOX IMVI melanoma, with RXF 393 renal, in the test on SR leukemia, with MOLT-4 leukemia and in the test with CAKI-1 renal was over 100 µM throughout. The TGI in the test with HCT-15 colon, in the test with SF-268 CNS and in the test with COLO 205 colon was over 100 µM throughout.
As for `C=C1CCC2C3(C)COC(c4ccc(Cl)cc4)OC3CCC2(C)C1/C=C/C1=CCOC1=O` (stereo not given), the GI50 in the test on M14 melanoma was 27.2 µM; in the test with LOX IMVI melanoma, 0.985 µM; in the test on RXF 393 renal it was 12 µM; in the test on SR leukemia, 1.37 µM; in the test on MOLT-4 leukemia, 4.5 µM; with CAKI-1 renal it was 6.87 µM. In addition, the GI50 with HCT-15 colon is 4.79 µM; with SNB-19 CNS, 15.9 µM; in the test on SF-268 CNS, 19.9 µM. The TGI in the test with M14 melanoma is over 100 µM; with LOX IMVI melanoma it was 17.6 µM; in the test on RXF 393 renal it was 58.2 µM; with SR leukemia, over 100 µM; with MOLT-4 leukemia, over 100 µM; with CAKI-1 renal it was over 100 µM. In addition, the values for the total growth inhibition concentration (TGI) in the test on HCT-15 colon, in the test with SNB-19 CNS and in the test with SF-268 CNS were over 100 µM, 88.4 µM and over 100 µM, respectively.
Consider `COc1ccc2c(c1)N(CCO)C1=C(C(=O)OC1)C2c1ccccc1` (stereo not given), for which the GI50 in the test with M14 melanoma is 1.4 µM; in the test with LOX IMVI melanoma it was 2.92 µM; in the test with SR leukemia, 1.69 µM; in the test on MOLT-4 leukemia, 3.63 µM; with CAKI-1 renal, 1.15 µM; with HCT-15 colon, 1.94 µM. For the same compound, the results for the GI50 in the test with SNB-19 CNS, in the test on SF-268 CNS and in the test with COLO 205 colon were 2.32 µM, 2.64 µM and 1.8 µM, respectively. Further, the TGI in the test with M14 melanoma is 4.65 µM; in the test with LOX IMVI melanoma, over 50 µM; with SR leukemia, over 50 µM; in the test on MOLT-4 leukemia, over 50 µM; with CAKI-1 renal, over 50 µM; with HCT-15 colon, over 50 µM. For the same compound, the concentration for total growth inhibition (TGI) in the test with SNB-19 CNS was over 50 µM; in the test with SF-268 CNS, over 50 µM; in the test with COLO 205 colon it was 4.85 µM.
Turning to `COC(=O)C(C(=O)C(=O)Nc1ccc(OC)cc1[N+](=O)[O-])c1nc2cc(C)c(C)cc2[nH]c1=O` (stereo not given), the TGI with M14 melanoma, with LOX IMVI melanoma, in the test with RXF 393 renal, with SR leukemia, in the test on CAKI-1 renal and in the test on HCT-15 colon was over 100 µM throughout. In addition, the TGI with SNB-19 CNS, in the test on SF-268 CNS and in the test with COLO 205 colon was over 100 µM throughout.
For `O=C(O)CC1CC=C[C@H]2c3cc4c(cc3C(=O)NC12)OCO4` (stereo not given in full), the TGI with M14 melanoma, in the test with LOX IMVI melanoma, in the test with RXF 393 renal, in the test with SR leukemia, in the test with MOLT-4 leukemia and in the test with HCT-15 colon was over 75 µM each time. Also, the TGI in the test with SNB-19 CNS, with SF-268 CNS and in the test with COLO 205 colon was over 75 µM throughout.
On to `Nc1ccc2c(c1)Oc1c(F)c(F)cc3c(=O)c(C(=O)O)cn-2c13`, for which the total growth inhibition concentration (TGI) in the test on M14 melanoma, with RXF 393 renal, in the test on SR leukemia, in the test with MOLT-4 leukemia, with CAKI-1 renal and in the test with HCT-15 colon was over 100 µM in each case. In addition, the total growth inhibition concentration (TGI) in the test with SNB-19 CNS and with COLO 205 colon was over 100 µM each time.
Regarding `O=C1C2ON3c4ccccc4C(=O)C3(c3ccccc3)C2C(=O)N1c1ccccc1` (stereo not given), the TGI in the test with M14 melanoma, with RXF 393 renal, in the test on SR leukemia, in the test with MOLT-4 leukemia, in the test on HCT-15 colon and in the test on SNB-19 CNS was over 100 µM throughout. The TGI with SF-268 CNS and with COLO 205 colon was over 100 µM throughout.
As for `Cc1cn2c(/C=C3/C(=O)Nc4ccc(F)cc43)c(C)nc2s1`, the GI50 in the test with M14 melanoma is 2.68 µM; in the test with LOX IMVI melanoma, 10.3 µM; with SR leukemia it was 1.67 µM; in the test on MOLT-4 leukemia it was 5.02 µM; with CAKI-1 renal it was 9.21 µM; in the test with HCT-15 colon it was 2.73 µM. Further, the GI50 in the test on SNB-19 CNS is 5.56 µM; with SF-268 CNS, 12.6 µM; in the test with COLO 205 colon, 1.91 µM. For the same compound, the TGI in the test on M14 melanoma is 17 µM; with LOX IMVI melanoma, over 50 µM; in the test on SR leukemia, 5.14 µM; in the test on MOLT-4 leukemia, 33.2 µM; in the test with CAKI-1 renal, over 50 µM; in the test with HCT-15 colon it was over 50 µM. For the same compound, the TGI in the test on SNB-19 CNS, in the test with SF-268 CNS and in the test with COLO 205 colon was over 50 µM in each case.
On to `O=C(NNC(=S)Nc1ccccc1)c1ccccn1`, for which the GI50 is 2.1 µM in the test with M14 melanoma; 2.31 µM in the test on LOX IMVI melanoma; 1.63 µM in the test on SR leukemia; 2.84 µM with MOLT-4 leukemia; 1.37 µM in the test with CAKI-1 renal; 1.13 µM in the test on HCT-15 colon. Further, the values for the GI50 in the test on SNB-19 CNS, with SF-268 CNS and in the test with COLO 205 colon were 2.95 µM, 2.66 µM and 4.05 µM, respectively. For the same compound, the TGI is 12.3 µM in the test on M14 melanoma; over 100 µM in the test with LOX IMVI melanoma; over 100 µM in the test with SR leukemia; over 100 µM in the test with MOLT-4 leukemia; over 100 µM with CAKI-1 renal; over 100 µM in the test with HCT-15 colon. The TGI with SNB-19 CNS, in the test on SF-268 CNS and in the test with COLO 205 colon was over 100 µM throughout.
As to `COc1ccc(-c2nc(-c3cnccn3)n(COCCO)n2)cc1`, the TGI in the test with M14 melanoma, in the test on LOX IMVI melanoma, in the test with RXF 393 renal, in the test with SR leukemia, with MOLT-4 leukemia and in the test with HCT-15 colon was over 100 µM each time. In addition, the TGI in the test on SNB-19 CNS, with SF-268 CNS and in the test with COLO 205 colon was over 100 µM each time.
Take `CCCCCCCCCOC(=S)NCCCCC`: the concentration for total growth inhibition (TGI) in the test with M14 melanoma amounted to 87.9 µM; with LOX IMVI melanoma, 29.4 µM; in the test with RXF 393 renal it was 53.6 µM; in the test with SR leukemia it was 50.6 µM; in the test with MOLT-4 leukemia it was 42.6 µM; with CAKI-1 renal, 73.7 µM. In addition, the TGI with HCT-15 colon was 53.9 µM; with SNB-19 CNS, over 100 µM; in the test with SF-268 CNS, over 100 µM.
In the case of `CC(=O)O/N=C(Cl)/C(Cl)=N/OC(C)=O`, the TGI with M14 melanoma, in the test with LOX IMVI melanoma, in the test with RXF 393 renal, in the test with SR leukemia, with MOLT-4 leukemia and with CAKI-1 renal was over 100 µM in each case. Further, the TGI in the test with HCT-15 colon, in the test with SNB-19 CNS and with SF-268 CNS was over 100 µM in each case.
With `CC[C@]12C=CCN3CC[C@@]4(c5ccc(OC)cc5N(C)[C@H]4[C@@](O)(C(=O)OC)[C@@H]1OC(=O)CCC(=O)N[C@H](Cc1c[nH]c4ccccc14)C(=O)OC)[C@@H]32`, the GI50 in the test with M14 melanoma was 4.06 µM; with RXF 393 renal, 2.22 µM; in the test with SR leukemia, 3.55 µM; with MOLT-4 leukemia it was 3.25 µM; in the test with CAKI-1 renal, 3.65 µM; with HCT-15 colon it was 3.51 µM. In addition, the GI50 with SNB-19 CNS was 4.74 µM; in the test with SF-268 CNS it was 4.88 µM; with COLO 205 colon it was 3.47 µM. In addition, the total growth inhibition concentration (TGI) in the test with M14 melanoma is over 100 µM; in the test with RXF 393 renal it was 5.72 µM; in the test with SR leukemia, over 100 µM; in the test on MOLT-4 leukemia it was over 100 µM; with CAKI-1 renal it was 17 µM; in the test on HCT-15 colon, 16.7 µM. Moreover, the TGI was 48.8 µM in the test with SNB-19 CNS, 25.9 µM in the test on SF-268 CNS and 14.3 µM in the test on COLO 205 colon.
Regarding `CC(=N)N(C)O`, the TGI with M14 melanoma was over 100 µM; with LOX IMVI melanoma, 31.3 µM; with RXF 393 renal, over 100 µM; in the test with SR leukemia, 68.4 µM; with MOLT-4 leukemia, over 100 µM; in the test with HCT-15 colon, 42.9 µM. The values for the concentration for total growth inhibition (TGI) in the test with SF-268 CNS and in the test with COLO 205 colon were over 100 µM and 33.2 µM, respectively.
`O=C1[C@H](Cl)[C@H]2c3cc4ccccc4nc3Oc3ccccc3N12`: the TGI with M14 melanoma, in the test with LOX IMVI melanoma, with SR leukemia, in the test with MOLT-4 leukemia, in the test with CAKI-1 renal and in the test on HCT-15 colon was over 100 µM throughout. The TGI in the test with SNB-19 CNS, in the test on SF-268 CNS and in the test on COLO 205 colon was over 100 µM each time.
As for `C/C(CCn1[nH]c(=O)ccc1=O)=N\Nc1ccc([N+](=O)[O-])cc1[N+](=O)[O-]`, the total growth inhibition concentration (TGI) in the test with M14 melanoma, in the test on LOX IMVI melanoma, in the test on RXF 393 renal, in the test on SR leukemia, with MOLT-4 leukemia and with CAKI-1 renal was over 100 µM each time. For the same compound, the TGI in the test on HCT-15 colon, in the test on SNB-19 CNS and in the test with SF-268 CNS was over 100 µM each time.
